Calls of active or inactive are those of the source.
Experiments:
[1] = cells
[2] = P. falciparum 3D7-ScDHODH growth inhibitors, dose response, SYBR Green, dry powder samples (AID 1159570); assay type: functional, cell-based;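 note: parasite growth measured after 72 hours of compound exposure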
[3] = system: HeLa; assay: HeLa cell cytotoxicity, dose response, cytotoxicity control, ATP luminescence, cherry-pick samples (AID 687004); assay type: functional, cell-based; details: Homo sapiens
[4] = system: HEK293; assay: HEK293T cell cytotoxicity, dose response, cytotoxicity control, ATP luminescence, cherry-pick samples (AID 687005); assay type: functional, cell-based; details: Homo sapiens;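 note: cells exposed to compound for 48 hours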
[5] = P. falciparum Dd2 growth inhibitors, dose response, SYBR Green, cherry-picked samples (AID 1159567); assay type: functional, cell-based
[6] = P. falciparum Dd2 growth inhibitors, dose response, SYBR Green, dry powder samples (AID 1159566); assay type: functional, cell-based;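 note: potency for growth inhibition with lower SYBR green DNA signal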
[7] = HepG2 cell cytotoxicity, dose response, cytotoxicity control, cherry-picked samples (AID 1159577); assay type: functional, cell-based
[8] = HEK293 Cytotoxicity Assay Measured in Cell-Based System Using Plate Reader - 7071-01_Inhibitor_Dose_CherryPick_Activity_Set2.; assay type: functional
[9] = P. falciparum ATP4 D1247Y mutant growth inhibitors, dose response, NITD609-resistant line, SYBR Green, dry powder (AID 1159571); assay type: functional, cell-based;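 note: parasites synchronized at ring stage by sorbitol before testing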
[10] = HepG2 cell cytotoxicity, dose response, cytotoxicity control, plate reader, dry powder samples (AID 1159569); assay type: functional, cell-based;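 note: inhibitor potency with signal falling toward the positive control level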
[11] = A375 melanoma cell cytotoxicity, dose response, counter-screen for MITF inhibitor project, CellTiter-Glo luminescence, dry powder, set 2 (AID 624489); assay type: functional, cell-based; details: A-375;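 note: actives are compounds lowering A375 viability meaning general cytotoxicity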
[12] = A375 melanoma cell viability loss, dose response, counter-screen for MITF inhibitor project, CellTiter-Glo luminescence, dry powder, set 4 (AID 624364); assay type: functional, cell-based; details: A-375;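 note: A375 melanoma cells are MITF independent so this is a counter screen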
[13] = YAP1 pathway inhibition via CTGF transcript levels, dose response, cell-based, DLD1 colon cancer, RT-qPCR, cherry-pick (AID 1053122); assay type: functional; details: Cancer cell lines
[14] = MITF: Counter assay: A375 proliferation Measured in Cell-Based System Using Plate Reader - 2084-03_Inhibitor_Dose_DryPowder_Activity_Set8.; assay type: functional; details: A-375
[15] = TRPM1 promoter luciferase reporter signal decrease, dose response, MITF inhibitor project, cell-based, SK-MEL-5, dry powder, set 8 (AID 624430); assay type: functional
[16] = MITF Orthogonal Assay: SK-MEL-5 CTG Assay Measured in Cell-Based System Using Plate Reader - 2084-02_Inhibitor_Dose_DryPowder_Activity_Set7.; assay type: functional
[17] = target: Disintegrin and metalloproteinase domain-containing protein 17 (Homo sapiens, UniProt P78536); assay: exosite inhibitors of ADAM17, dose response, biochemical (AID 743260)
Sequence of Disintegrin and metalloproteinase domain-containing protein 17 (P78536 whole entry, the tested form may be a part): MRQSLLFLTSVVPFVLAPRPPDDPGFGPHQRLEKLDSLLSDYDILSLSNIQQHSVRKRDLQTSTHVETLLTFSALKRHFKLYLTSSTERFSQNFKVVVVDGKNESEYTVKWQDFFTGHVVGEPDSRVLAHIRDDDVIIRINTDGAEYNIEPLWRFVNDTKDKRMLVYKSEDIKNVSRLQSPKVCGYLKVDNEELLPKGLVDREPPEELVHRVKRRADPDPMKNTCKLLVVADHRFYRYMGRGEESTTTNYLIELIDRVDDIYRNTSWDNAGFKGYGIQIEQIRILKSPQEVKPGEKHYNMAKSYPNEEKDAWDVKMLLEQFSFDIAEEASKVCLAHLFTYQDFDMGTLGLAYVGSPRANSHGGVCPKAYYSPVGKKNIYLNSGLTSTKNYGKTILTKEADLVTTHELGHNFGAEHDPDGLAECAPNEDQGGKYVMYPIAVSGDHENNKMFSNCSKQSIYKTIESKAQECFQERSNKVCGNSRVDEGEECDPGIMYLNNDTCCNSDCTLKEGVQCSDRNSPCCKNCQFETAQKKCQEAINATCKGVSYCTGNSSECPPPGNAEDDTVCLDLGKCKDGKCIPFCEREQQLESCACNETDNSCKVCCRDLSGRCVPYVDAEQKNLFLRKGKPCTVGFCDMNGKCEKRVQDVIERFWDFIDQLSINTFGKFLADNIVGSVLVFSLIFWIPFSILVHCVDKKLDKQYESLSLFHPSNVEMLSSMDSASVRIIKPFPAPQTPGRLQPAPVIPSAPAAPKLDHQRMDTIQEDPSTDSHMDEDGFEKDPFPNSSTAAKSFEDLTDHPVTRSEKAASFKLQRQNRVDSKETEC

[18] = ADAM10 protease inhibitors, dose response, selectivity assay for ADAM17 exosite inhibitor project, biochemical, FRET peptide substrate, recombinant human ADAM10 (AID 743259);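 note: ADAM10 enzyme cleaving a FRET peptide substrate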
[19] = system: HEK293; assay: cells; assay type: functional, cell-based; details: Homo sapiens
[20] = target: T1, Nuclear receptor subfamily 0 group B member 1 (Homo sapiens, UniProt P51843); assay: Luminescence-based cell-based high throughput dose response assay for inhibitors of the orphan nuclear receptor subfamily 0, group B, member 1 (DAX1; NR0B1). [Related pubchem assays (depositor defined):AID504766, AID504790]; assay type: functional
T1 sequence (P51843 whole entry): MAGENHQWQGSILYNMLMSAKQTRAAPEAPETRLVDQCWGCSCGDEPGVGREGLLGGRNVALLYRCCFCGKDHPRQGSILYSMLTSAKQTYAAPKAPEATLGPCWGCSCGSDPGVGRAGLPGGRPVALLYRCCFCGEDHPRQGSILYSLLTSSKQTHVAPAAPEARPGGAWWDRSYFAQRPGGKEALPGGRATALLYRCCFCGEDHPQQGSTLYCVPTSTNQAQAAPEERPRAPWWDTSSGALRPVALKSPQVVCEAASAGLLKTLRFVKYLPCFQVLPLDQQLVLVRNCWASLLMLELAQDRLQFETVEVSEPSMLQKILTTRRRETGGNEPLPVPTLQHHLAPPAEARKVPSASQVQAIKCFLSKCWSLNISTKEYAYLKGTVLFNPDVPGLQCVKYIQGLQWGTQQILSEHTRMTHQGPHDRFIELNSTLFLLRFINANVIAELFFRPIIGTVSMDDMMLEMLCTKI

[21] = cells; details: HEK293

For CC(C)OCCCn1c(=N)c(C(N)=S)cc2c(=O)n3ccccc3nc21, the AC50 [1] was 0.61 µM (active).

For C[C@@H]1CN([C@@H](C)CO)C(=O)c2c(c3ccccc3n2C)-c2ccccc2CO[C@@H]1CN(C)S(=O)(=O)c1ccc(Cl)cc1, the AC50 [2] was 3.95 µM (active), the AC50 [3] was 49.1 µM (active) and the AC50 [4] was 25.3 µM (active). The AC50 [5] was 2.33 µM (active), the AC50 [6] was 1.97 µM (active) and the AC50 [7] was > 39 µM (inactive). For the same compound, the AC50 [8] was 25.3 µM (active), the AC50 [9] was 3.4 µM (active) and the AC50 [10] was 39.2 µM (active).

For CN1CCN(C2=C(NC(=O)c3ccccc3)C(=O)c3ccccc3C2=O)CC1, the AC50 [11] was 12.9 µM (active) and the AC50 [12] was 17 µM (active).

For CCc1nc(N2[C@H](CO)[C@@H](c3ccccc3-c3ccc(F)cc3)[C@@H]2C#N)sc1C, the AC50 [13] was > 26 µM (inactive).

With O=C1C(Nc2ccc(F)cc2)=C(N2CCCC2)C(=O)c2ccccc21 the AC50 [14] was 11.9 µM (active), the AC50 [15] was 0.583 µM (active) and the AC50 [16] was 0.625 µM (active).

For COCCOc1ccc(C(F)(F)F)cc1NC(=O)CN1C(=O)NC(C)(c2ccc3c(c2)OCO3)C1=O (stereo unspecified), the IC50 [17] was > 69.5 µM (inactive), the IC50 [18] was 27.7 µM (inactive) and the IC50 [19] was > 67.5 µM (inactive). For the same compound, the IC50 [20] was > 67.5 µM (inactive).

For Cc1ccc2c(c1)-c1c(cnn1CC(=O)Nc1ccccc1N1CCN(C)CC1)CO2, the AC50 [21] was 47.1 µM (active).

Reference: ChEMBL document CHEMBL1201862, “PubChem BioAssay data set” (2004)
